# Experimental data from ChEMBL document CHEMBL1141495, “Isoindol-1,3-dione and isoindol-1-one derivatives with high binding affinity to beta-amyloid fibrils” (Bioorg Med Chem Lett, 2008).
# Assay: Displacement of [125I]TZDM from beta amyloid 42 fibril
row,Compound,Ki [nM]
1,CN(C)c1ccc(N2Cc3cc(Cl)ccc3C2=O)cc1,0.76
2,COc1ccc2c(c1)CN(c1ccc(N(C)C)cc1)C2=O,0.94
3,COc1cc(N2C(=O)c3ccc(F)cc3C2=O)ccc1N(C)C,0.78
4,CNc1ccc(-c2nc3ccc(O)cc3s2)cc1 [PITTSBURGH COMPOUND B UNLABELLED],0.7
5,CC(C(=O)O)c1ccc(N2Cc3ccccc3C2=O)cc1 (stereo not given) [INDOPROFEN],0.52
6,COc1cc(N2Cc3ccccc3C2=O)ccc1N(C)C,0.9
7,COc1cc(N2C(=O)c3ccccc3C2=O)ccc1N(C)C,0.66
8,COc1cc(N2C(=O)c3ccc(Br)cc3C2=O)ccc1N(C)C,0.42
9,CN(C)c1ccc(N2Cc3cc(Br)ccc3C2=O)cc1,0.81
10,CN(C)c1ccc(N2C(=O)c3ccccc3C2=O)cc1,0.69
11,CN(C)c1ccc(N2Cc3ccc(F)cc3C2=O)cc1,0.93
12,CN(C)c1ccc(N2Cc3ccccc3C2=O)cc1,0.58
13,CN(C)c1ccc(N2C(=O)c3ccc(N(C)C)cc3C2=O)cc1,0.7
14,CN(C)c1ccc(N2Cc3cc(F)ccc3C2=O)cc1,0.49
15,Cc1ccc2c(c1)C(=O)N(c1ccc(N(C)C)cc1)C2=O,0.5
16,CN(C)c1cccc(N2Cc3ccccc3C2=O)c1,0.57
17,COc1ccc(N2Cc3ccccc3C2=O)cc1N(C)C,0.65
18,COc1ccc2c(c1)C(=O)N(c1ccc(N(C)C)cc1)C2=O,0.71
19,Cc1ccc2c(c1)C(=O)N(c1ccc(N(C)C)cc1)C2,0.76
20,CN(C)c1ccc(N2Cc3ccc(Cl)cc3C2=O)cc1,0.5
21,CN(C)c1cccc(N2C(=O)c3ccccc3C2=O)c1,0.46
22,COc1ccc(N2C(=O)c3ccccc3C2=O)cc1N(C)C,0.44
23,CN(C)c1ccc(N2C(=O)c3ccc(F)cc3C2=O)cc1,0.56
24,COc1cc(N2C(=O)c3ccc(Cl)cc3C2=O)ccc1N(C)C,0.7
25,COc1cc(N2Cc3ccc(C)cc3C2=O)ccc1N(C)C,0.46
